Source: patent US8193333B2, “Cancer therapy using Bcl-Xl-specific siNA” (Centre Regional de Lutte Contre le Cancer-Centre Francois …, priority 2006, dated 2012)

Experiments:
[1] = test system: Bcl-XL protein; assay: Western blot of Bcl-XL protein expression in tumour cell lines after siRNA transfection; format: cell-based, human
Experimental: SKOV3, OAW42, OAW42-R10, IGROV1 and IGROV1-R10 human ovarian adenocarcinoma cell lines, GL15 glioblastoma cell line, and NCI-H28 mesothelioma cell line were obtained from ECACC or ATCC. OAW42, OAW42-R10 cells were grown in DMEM (GIBCO-BRL) supplemented with 10% foetal calf serum (GIBCO-BRL), 2 mM Glutamax™ (GIBCO-BRL), 1 mM sodium pyruvate (GIBCO-BRL), 20 UI/L human recombinant insulin (LILLY), 33 mM sodium bicarbonate and 20 mM HEPES All the other cell lines were grown in RPMI 1640 medium (GIBCO-BRL) supplemented with 10% foetal calf serum (GIBCO-BRL), 2 mM Glutamax™ (GIBCO-BRL), 33 mM sodium bicarbonate and 20 mM HEPES. Cells were maintained at 37° C. in a 5% CO2 humidified atmosphere, and split twice a week by trypsinization.
Exponentially growing cells were exposed to CDDP for 2 hours at 37° C., in serum free medium. After exposure to the drug, the cell layers were rinsed and incubated in complete growth medium.
The siRNA duplexes were transfected according to the recommended procedure by using the Oligofectamine Reagent and Opti-MEM medium (INVITROGEN LIFE TECHNOLOGIES). 30-40% confluent cells were transfected in 25 cm^2 flasks with different concentrations of siXL1, siRNA Mcl-1 or siRNA control and incubated at 37° C., 5% CO2 for 4 hours. Next, 20% fetal bovin serum was added to reach a final concentration of 10% foetal bovin serum in the 25 cm^2 flask.
Cells were rinsed with ice cold PBS and lysed in 150 mM NaCl, 50 mM Tris-HCl pH 8, 1% Triton X100, 4 mM PMSF, 2 mM Aprotinin, 5 mM EDTA, 10 mM NaF, 10 mM NaPPi, 1 mM Na3VO4 for 30 min on ice. Lysates were clarified by centrifugation at 10000 g for 10 min at 4° C. and protein concentrations were determined using the Bradford assay (BIO-RAD). Equal amounts of total cellular protein (20 μg) were resolved in a Bis-tris-HCL buffered (pH 6.4) 4-12% polyacrylamide gel (NuPAGE® Novex® 4-12% Bis-tris gel, INVITROGEN) for 35 min at 200V and electrophoretically transferred on a PVDF membrane (MILLIPORE) for 75 min at 30V. The membrane was blocked for 1 hour at room temperature in T-TBS (132 mM NaCl, 20 mM Tris-HCl pH 7.6, 0.05% Tween 20) supplemented with 5% non-fat dry milk. The membrane was incubated for 1 hour at room temperature in T-TBS-milk with the following primary antibodies: anti-Bcl-XL/S (1:500, S18 SANTA-CRUZ BIOTECHNOLOGY), anti-PARP (1:1000, CELL-SIGNALING TECHNOLOGY), anti-caspase-3 (1:1000, BD BIOSCIENCES PHARMINGEN) anti-cleaved caspase-3 (1:1000, CELL-SIGNALING TECHNOLOGY), anti-alpha-tubulin (1:3000, SIGMA) and anti-Mcl-1 (1:750, S19 SANTA-CRUZ BIOTECHNOLOGY). After three washes with T-TBS, the membrane was incubated for 1 h at room temperature in T-TBS-milk with the adequate peroxidase conjugated secondary antibody (Anti-rabbit IgG, CELL-SIGNALING TECHNOLOGY, and anti-mouse IgG, AMERSHAM). After 3 washes with T-TBS and one with TBS, the immunoreactivity was detected by enhanced chemiluminescence (ECL kit, AMERSHAM).

[2] = test system: intraperitoneal SKOV3 human ovarian adenocarcinoma; assay: Survival of nude mice bearing intraperitoneal SKOV3 tumours; format: in vivo, Swiss/nude mice
Experimental: 4-week-old female Swiss/nude mice were obtained from CHARLES-RIVER LABORATORIES and maintained in a pathogen-free environment. The mice were fed a standard laboratory diet and tap water ad libitum and kept a 23±1° C. with a 12 h light/dark cycle. Animal experiments in the present study were performed in compliance with the guidelines of the Federation of european laboratory animal science associations.
6-8 weeks old mice were implanted intraperitoneally with 2×10^7 ovarian adenocarcinoma SKOV3 cells. As described previously, this model reflects the i.p growth pattern of advanced ovarian cancer (Louis et al, Cancer Gene Therapy, 2006, 13, 367-374).
Twenty one days after tumour implantation, mice were allocated to one of the eight treatment groups (10 mice per group) summarized in Table II: • Group 1 comprised untreated animals. • Group 2 received intraperitoneal injection of 4 μg/kg cisplatin in 1 ml 0.9% NaCl solution. • Group 3 received intraperitoneal injection of 25 μg/kg control siRNA in 1 ml 0.9% NaCl. • Group 4 received intraperitoneal injection of 25 μg/kg Bcl-XL siRNA in 1 ml 0.9% NaCl. • Group 5 received intraperitoneal injection of 25 μg/kg control siRNA in 1 ml 0.9% NaCl and the following day 4 μg/kg of cisplatin in 1 ml 0.9% NaCl solution. • Group 6 received intraperitoneal injection of 4 μg/kg of cisplatin in 1 ml 0.9% NaCl solution and the following day 25 μg/kg control siRNA in 1 ml 0.9% NaCl. • Group 7 received intraperitoneal injection of 25 μg/kg Bcl-XL siRNA in 1 ml 0.9% NaCl and the following day 4 μg/kg of cisplatin in 1 ml 0.9% NaCl solution. • Group 8 received intraperitoneal injection of 4 μg/kg of cisplatin in 1 ml 0.9% NaCl solution and the following day 25 μg/kg Bcl-XL siRNA in 1 ml 0.9% NaCl.
The same treatment was repeated one month later. Mice were killed and autopsied when considered as moribund. Organs and tumours were formalin-fixed and paraffin-embedded for histological examination. At the end of the experiment, all surviving animals were sacrificed, and histological examination was performed in order to detect residual tumour nodes.

[3] = SKOV3 cells, 100 nM siXL1, FIG. 4

Substance: siXL1: double-stranded siRNA blocking Bcl-XL expression; sense 5′-auuggugagucggaucgcatt-3′ (SEQ ID NO: 5), anti-sense 5′-ugcgauccgacucaccaautt-3′ (SEQ ID NO: 6) (sense AUUGGUGAGUCGGAUCGCATT; antisense UGCGAUCCGACUCACCAAUTT; chemistry not given here)
- optimal concentration ([1]; SKOV3 cells): 150 nM
- persistence of the siXL1 effect ([1]; SKOV3 cells): 96 h
- effect on Bcl-XL protein expression at lower dose ([1]; SKOV3 cells, 25 nM, FIG. 4): greatly reduced and delayed
- time of maximum decrease of Bcl-XL protein expression [1, 3]: 72 h
- time of reappearance of Bcl-XL protein expression [1, 3]: ≥ 144 h
- Bcl-XL protein expression 24 hours after transfection ([1]; SKOV3 cells, 24 hours after siXL1 transfection): reduced
- effect of various concentrations on Bcl-XL protein expression ([1]; SKOV3 cells, 72 h after transfection, FIG. 3): dose-dependent
- Bcl-XL protein expression 24 hours after exposure to cisplatin ([1]; SKOV3 cells, 72 hours after siRNA transfection, cisplatin 5 and 20 μg/ml, FIG. 9): disappears almost completely
- Bcl-XL protein expression after 72 hours ([1]; SKOV3 cells, 72 hours after transfection, FIG. 1C): disappeared totally
- Bcl-XL protein expression 96 hours after cisplatin exposure ([1]; SKOV3 cells, 144 hours after transfection, combination with 20 μg/ml cisplatin, FIG. 9): reappears
- Bcl-XL protein expression in various tumor cell lines ([1]; ovarian carcinoma, glioblastoma or mesothelioma cells, 72 h after transfection, FIGS. 2A&B): extinction
- mice that die in the same interval as the control mice ([2]; group treated with siXL1): 50%
- mice with no residual tumors at autopsy after 150 days ([2]; group treated with siXL1): 50%
- duration of complete regression of the pre-established tumor after tumor cells implantation ([2]; low dose, mice implanted with human chemoresistant tumor cells): at least 5 months
- survival at 130 days ([2]; naked siRNA 25 μg/kg intraperitoneal, 2 injections at 28 days interval, FIG. 15): 60%
- effect on mice survival ([2]; siRNA 25 μg/kg, cisplatin 4 μg/kg intraperitoneal, treatment repeated one month later, FIG. 15): increases considerably
